Here are results for 42 molecules from BindingDB's records for doi:10.7270/Q2D798VP (Broad Institute, 2009).

The EC50 is the midpoint of the concentration-response curve. A lower EC50 goes with an effect from little substance.

Bounds are passed on as bounds.

The target in the assay is T1, Zinc finger protein mex-5 (Caenorhabditis elegans, UniProt Q9XUB2).
T1 sequence (Q9XUB2 whole entry): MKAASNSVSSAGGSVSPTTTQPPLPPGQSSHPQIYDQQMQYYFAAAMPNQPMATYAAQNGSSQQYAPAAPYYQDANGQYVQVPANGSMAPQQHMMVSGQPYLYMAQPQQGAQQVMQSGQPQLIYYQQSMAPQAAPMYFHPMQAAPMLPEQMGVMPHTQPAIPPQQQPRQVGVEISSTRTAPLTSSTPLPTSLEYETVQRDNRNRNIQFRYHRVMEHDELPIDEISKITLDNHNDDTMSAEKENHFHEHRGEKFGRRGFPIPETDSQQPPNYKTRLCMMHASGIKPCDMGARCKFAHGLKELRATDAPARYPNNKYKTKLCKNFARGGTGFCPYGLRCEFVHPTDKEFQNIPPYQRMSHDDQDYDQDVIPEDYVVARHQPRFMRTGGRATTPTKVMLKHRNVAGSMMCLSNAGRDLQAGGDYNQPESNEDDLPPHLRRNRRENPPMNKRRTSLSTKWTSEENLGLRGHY
Nature of the assay: potency of MEX-5 RNA-binding blockers – biochemical, C. elegans, fluorescence polarization, dose response (AID 1960). (In general: Fluorescence polarisation rises when a labelled molecule tumbles more slowly, as on binding a larger partner.)
Take `COc1ccc(C2C(C(=O)c3cccs3)C(=O)C(=O)N2c2nncs2)cc1` (configuration not stated): a half-maximal response (EC50) required 0.1 µM.

Turning to `COc1ccc(C2C(C(C)=O)=C(C)N=c3sc(=Cc4cc(C)n(C)c4C)c(=O)n32)c(OC)c1` (configuration not stated), the EC50 came out at 21 µM.

The molecule `N#CC1C(=N)OC2=C(C(=O)CC(c3ccccc3)C2)C1c1ccc2c(c1)OCO2` (configuration not stated) yielded an EC50 of over 300 µM.

As for `Clc1ccc(C2=Nc3ncnn3C(c3ccco3)C2)cc1` (configuration not stated), a half-maximal response (EC50) required 3.36 µM.

With `Brc1ccc(C2=Nc3ncnn3C(c3ccco3)C2)cc1` (configuration not stated), the midpoint of the response, the EC50, lay at 18.1 µM.

`CS(=O)(=O)Nc1nc2n(n1)C(c1ccccc1)CC(c1ccc(Br)cc1)=N2` (configuration not stated) had an EC50 of 6.39 µM.

Regarding `COc1ccccc1-n1c(O)c2n(-c3ccc(C)cc3)[nH]c(C(=O)c3ccccc3)c-2c1=O`, the half-maximal effective concentration (EC50) was found to be 14.3 µM.

In turn, `COc1cc(C2c3c(-c4cccnc4)n[nH]c3OC(=N)C2C#N)cc(Br)c1O` (configuration not stated) had an EC50 of over 300 µM.

As for `O=C1N=c2ccccc2=C1NNc1ccc(F)cc1`, the EC50 is over 300 µM.

With `c1ccc(CN=Nc2nc3ccccc3[nH]2)nc1`, the EC50 was 41.7 µM.

Consider `Cc1c(C(=O)NN=Cc2ccco2)[nH][nH]c1=O`, for which the EC50 was over 300 µM.

`COC1=CC([N+](=O)[O-])=CC(/C=N/NC(=O)CC#N)C1=O` (configuration not stated) came in with an EC50 of over 300 µM.

Consider `Cc1ccc(Cl)c2c1NC(=O)/C2=C1/NC(=S)NC1=O`, for which a half-maximal response (EC50) required 0.294 µM.

Consider `Cc1c(C(=O)O)cccc1-n1c(C)cc(CN=Nc2ccc([N+](=O)[O-])cn2)c1C`, for which a half-maximal effect (EC50) was put at 50.2 µM.

`COc1ccc(OC)c(NC=C2C(=O)NC(=S)N(Cc3ccccc3)C2=O)c1` showed an EC50 of over 300 µM.

As to `C[C@H]1c2cccc(O)c2C(=O)C2C(=O)[C@]3(O)C(=O)C(C(N)=O)C(=O)[C@@H](N(C)C)[C@@H]3[C@@H](O)[C@@H]21` (some centres not stated), the EC50 came out at 37.9 µM.

`COc1cc(C2C3=C(CC(C)(C)CC3=O)OC(=N)C2C#N)cc2c1OCO2` (configuration not stated) returned an EC50 of over 300 µM.

Consider `N#CC1C(=N)OC2=C(C(=O)CCC2)C1c1ccc2c(c1)OCO2` (configuration not stated), for which the EC50 is over 300 µM.

The molecule `Cc1ccc(Cl)c2c1=NC(=O)C=2NNc1ccccc1` had an EC50 of over 300 µM.

For `COc1cc(C2C3=C(CCCC3=O)OC(=N)C2C#N)cc2c1OCO2` (configuration not stated), the EC50 was over 300 µM.

Consider `Cc1ccc2c(c1)=C(NNc1ccccc1C)C(=O)N=2`, for which the EC50 was over 300 µM.

In the case of `O=C1NC(=O)N(c2cccc(F)c2)C(=O)C1=Cc1c[nH]c2ccccc12`, the EC50 was 36.6 µM.

`COc1ccccc1OCC(=O)NN=Cc1c(O)ccc2ccccc12` registered an EC50 of 131 µM.

`N#CCC(=N)C(C#N)C#N` [1,1,3-tricyano-2-amino-1-propene] yielded an EC50 of 169 µM.

As for `O=C(NN=CC1=CC(=O)C(=O)CC1)NN=CC1=CC(=O)C(=O)CC1` [1,3-bis[[(Z)-(3-hydroxy-4-oxocyclohexa-2,5-dien-1-ylidene)methyl]amino]urea], the EC50 worked out at 4.86 µM.

Consider `CCN(CC)CCN1C(=O)C(=O)C(C(=O)c2cc3cccc(OC)c3o2)C1c1ccc(F)cc1` (configuration not stated) [1-(2-Diethylamino-ethyl)-5-(4-fluoro-phenyl)-3-hydroxy-4-(7-methoxy-benzofuran-2-carbonyl)-1,5-dihydr o-pyrrol-2-one], for which the EC50 was over 300 µM.

Regarding `C=CCOc1cccc(C2C(C(=O)c3ccco3)C(=O)C(=O)N2Cc2ccco2)c1` (configuration not stated) [1-(2-furanylmethyl)-3-[2-furanyl(oxo)methyl]-4-hydroxy-2-(3-prop-2-enoxyphenyl)-2H-pyrrol-5-one], the EC50 is over 300 µM.

Regarding `O=C1Nc2ccccc2/C1=N/NC(=S)Nc1ccc(O)cc1` [1-(4-hydroxyphenyl)-3-[(2-oxidanylideneindol-3-yl)amino]thiourea], the EC50 came to 3.98 µM.

For `C=CCOc1ccc(C2C(C(=O)c3cccs3)C(=O)C(=O)N2c2nnc(C)s2)cc1` (configuration not stated) [1-(5-methyl-1,3,4-thiadiazol-2-yl)-4-oxidanyl-2-(4-prop-2-enoxyphenyl)-3-thiophen-2-ylcarbonyl-2H-pyrrol-5-one], the response was half-maximal at 3.06 µM (EC50).

`COc1ccc(NC=C2C(=O)NC(=S)N(Cc3ccccc3)C2=O)c(OC)c1` [1-Benzyl-5-[1-(2,4-dimethoxy-phenylamino)-meth-(Z)-ylidene]-2-thioxo-dihydro-pyrimidine-4,6-dione]: the EC50 was over 300 µM.

As to `CSc1nncc(C(C)N=Nc2ccccc2)n1` (configuration not stated) [1-[3-(methylsulfanyl)-1,2,4-triazin-5-yl]ethanone phenylhydrazone], the EC50 is over 300 µM.

`C=CCSc1nnc(N2C(=O)C(=O)C(C(=O)c3ccco3)C2c2ccccc2F)s1` (configuration not stated) [1-[5-(allylthio)-1,3,4-thiadiazol-2-yl]-5-(2-fluorophenyl)-4-(2-furoyl)-3-hydroxy-3-pyrrolin-2-one]: the EC50 stood at 54.8 µM.

As to `C=CCSc1nnc(N2C(=O)C(=O)C(C(=O)c3ccco3)C2c2ccc(F)cc2)s1` (configuration not stated) [1-[5-(allylthio)-1,3,4-thiadiazol-2-yl]-5-(4-fluorophenyl)-4-(2-furoyl)-3-hydroxy-3-pyrrolin-2-one], the EC50 was 87.6 µM.

In the case of `CC(C)c1ccc(C2C(C#N)=C3Sc4ccccc4N3C(=N)C2C#N)cc1` (configuration not stated) [1-amino-3-(4-propan-2-ylphenyl)-3H-pyrido[2,1-b][1,3]benzothiazole-2,4-dicarbonitrile], the EC50 was determined as 61.3 µM.

On to `CC1(C)CC(=O)C2Sc3ccccc3N=C2C1` (configuration not stated) [2,2-Dimethyl-2,3-dihydro-1H,10H-phenothiazin-4-one], for which a half-maximal response (EC50) required 59.3 µM.

Molecule `COc1cccc(C2C(C(=O)c3cc4cccc(OC)c4o3)C(=O)C(=O)N2c2cc(C)on2)c1OC` (configuration not stated) [2-(2,3-dimethoxyphenyl)-3-[(7-methoxy-1-benzofuran-2-yl)carbonyl]-1-(5-methyl-1,2-oxazol-3-yl)-4-oxidanyl-2H-pyrrol-5-one] registered an EC50 of over 300 µM.

In the case of `COc1ccc(OC)c(C2C(C(=O)c3ccco3)C(=O)C(=O)N2CCN2CCOCC2)c1` (configuration not stated) [2-(2,5-dimethoxyphenyl)-3-(furan-2-carbonyl)-4-hydroxy-1-(2-morpholin-4-ylethyl)-2H-pyrrol-5-one], the EC50 is over 300 µM.

As to `COc1cccc(C2C3=C(CCCC3=O)OC(=N)C2C#N)c1OC(=O)c1ccco1` (configuration not stated) [2-(2-amino-3-cyano-5-oxo-5,6,7,8-tetrahydro-4H-chromen-4-yl)-6-methoxyphenyl 2-furoate], the EC50 was over 300 µM.

`CC1(C)CC(=O)C2=C(C1)OC(=N)C(C#N)C2c1ccccc1OC(=O)N1CCOCC1` (configuration not stated) [2-(2-amino-3-cyano-7,7-dimethyl-5-oxo-5,6,7,8-tetrahydro-4H-chromen-4-yl)phenyl morpholine-4-carboxylate]: the EC50 is over 300 µM.

`CCCSc1nnc(N2C(=O)C(=O)C(C(=O)c3ccco3)C2c2ccccc2F)s1` (configuration not stated) [2-(2-fluorophenyl)-3-(furan-2-carbonyl)-4-hydroxy-1-(5-propylsulfanyl-1,3,4-thiadiazol-2-yl)-2H-pyrrol-5-one]: the EC50 is over 300 µM.

`COc1ccc(C2C(C(=O)c3cccs3)C(=O)C(=O)N2c2nnc(C)s2)cc1OC` (configuration not stated) [2-(3,4-dimethoxyphenyl)-1-(5-methyl-1,3,4-thiadiazol-2-yl)-4-oxidanyl-3-thiophen-2-ylcarbonyl-2H-pyrrol-5-one] returned an EC50 of 5.19 µM.

In the case of `COc1ccc(C2C(C(=O)c3ccco3)C(=O)C(=O)N2c2nnc(C)s2)cc1OC` (configuration not stated) [2-(3,4-dimethoxyphenyl)-3-(furan-2-carbonyl)-4-hydroxy-1-(5-methyl-1,3,4-thiadiazol-2-yl)-2H-pyrrol-5-one], the response was half-maximal at 297 µM (EC50).
